The test system of assay [1] is NCIH460 (lung) cells. Briefly: Anti-cancer screen (MTT), NCIH460. In kind it is cell-based. Conditions: Homo sapiens, NCI-H460, NCIH460, 48 hours, MTT; for GI50: read-out: Cell growth inhibition NCIH460 (Lung) GI50; for LC50: read-out: Cell growth inhibition NCIH460 (Lung) LC50; for IC (TGI): read-out: Cell growth inhibition NCIH460 (Lung) TGI. Summed up:
(§1)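 An MTT readout (absorbance at 570 nm) measured growth after 48 h of treatment at five final concentrations, 0.01–100 μM, each in triplicate. A T0 plate read at the time of dosing served as baseline. Cultures were in DMEM plus 10% FBS and pre-incubated 24 h at 37° C., with SAHA as the reference drug.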

Assay [2] relates to HCT 116 (colon) cells. In words: Anti-cancer screen (MTT), HCT 116. It is filed as cell-based. The settings on record: Homo sapiens, HCT-116, HCT116, 48 hours, MTT; for GI50: read-out: Cell growth inhibition HCT116 (Colon) GI50; for CC50: read-out: Cell growth inhibition HCT116 (Colon) LC50; for IC (TGI): read-out: Cell growth inhibition HCT116 (Colon) TGI. The procedure, abridged: as §1

The subject of assay [3] is U251 (glioma) cells. In words: Anti-cancer screen (MTT), U251. The settings on record: Homo sapiens, U-251, U251, 48 hours, MTT; for GI50: read-out: Cell growth inhibition U251 (Glioma) GI50; for LC50 (concentration giving 50% net cell kill relative to the time-zero cell count): read-out: Cell growth inhibition U251 (Glioma) LC50; for IC (TGI): read-out: Cell growth inhibition U251 (Glioma) TGI. It is filed as cell-based. The procedure, abridged:
as §1

Assay [4] relates to NCIH460, HCT116 and U251 cells. Briefly: Anti-cancer screen, mean GI50 over cell lines. It is filed as cell-based. Conditions: mean over cell lines; read-out: Cell growth inhibition Mean GI50. The procedure, abridged:
as §1

Assay [5] has as its system HDAC (Mouse Liver Extract). Briefly: HDAC inhibition assay using Boc-Lys(Ac)-AMC substrate. The settings on record: mouse liver enzyme. It is filed as biochemical. The procedure, abridged:
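Released AMC measured at 360 nm excitation, 460 nm emission after 15-30 min trypsin development at 37° C. Preceding deacetylation: mouse liver extract with acetylated-lysine AMC substrate, 30 min at 37° C after 5-min preincubation; blanks were buffer alone and substrate alone.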

With `O=C(NCc1ccc(C(=O)NO)cc1)/C(=C/c1ccc(F)cc1)c1ccccc1` [Compound 51, 4-((2-(Phenyl)-3-(4-fluorophenyl)acrylamido)methyl)-N-hydroxybenzamide], in assay [1], the GI50 was 24 µM, the LC50 was 86 µM and the IC (TGI) stood at 60 µM. In assay [2], the GI50 worked out at 7.5 µM, the CC50 was found to be 83 µM and the IC (TGI) was 36 µM. Further, in assay [3], the GI50 was 6 µM, the LC50 (concentration giving 50% net cell kill relative to the time-zero cell count) worked out at 72 µM and the IC (TGI) was 48 µM. Moreover, the GI50 in assay [4] is 12.5 µM. Moreover, in assay [5], the “HDAC inhibition % (1 μM)” value is reported as 74.5% and the “HDAC inhibition % (10 μM)” value worked out at 90.8%.

As for `O=C(CCCCCNC(=O)/C(=C/c1ccccc1)c1ccccc1)NO` [Compound 88, 6-(2,3-Diphenylacrylamido)-N-hydroxy hexanamide], in assay [1], the GI50 stood at 21 µM, the LC50 was found to be 91 µM and the IC (TGI) was determined as 57.5 µM. In assay [2], the GI50 is 5 µM, the CC50 was greater than 100 µM and the IC (TGI) turned out to be 22.5 µM. In addition, in assay [3], the GI50 is 7.8 µM, the LC50 (concentration giving 50% net cell kill relative to the time-zero cell count) was determined as 78 µM and the IC (TGI) turned out to be 37.5 µM. The GI50 in assay [4] was 11.3 µM. For the same molecule, in assay [5], the “HDAC inhibition % (1 μM)” value is listed as 81.5% and the “HDAC inhibition % (10 μM)” value came to 95.4%.

On to `Nc1ccccc1NC(=O)c1ccc(CNC(=O)/C(=C/c2ccc([N+](=O)[O-])s2)c2ccc(F)cc2)cc1` [Compound 7, N-(2-Aminophenyl)-4-((3-(5-nitrothiophen-2-yl)-2-(4-fluorophenyl)acrylamido)methyl)benzamide], for which, in assay [1], the GI50 was determined as 6.2 µM, the LC50 is 73.8 µM and the IC (TGI) amounted to 26.5 µM. In assay [2], the GI50 was 4.5 µM, the CC50 was determined as 71.2 µM and the IC (TGI) turned out to be 9.6 µM. In assay [3], the concentration for 50% growth inhibition (GI50) turned out to be 17 µM, the LC50 (concentration giving 50% net cell kill relative to the time-zero cell count) was found to be 76 µM and the IC (TGI) is 34.5 µM. In addition, the GI50 in assay [4] was determined as 9.2 µM. In assay [5], the “HDAC inhibition % (1 μM)” value was determined as 12.4% and the “HDAC inhibition % (10 μM)” value was determined as 19.4%.

As to `COc1ccc(/C=C(/C(=O)NCc2ccc(C(=O)Nc3ccccc3N)cc2)c2ccccc2Cl)cc1OC` [Compound 30, N-(2-Aminophenyl)-4-((3-(3,4-dimethoxyphenyl)-2-(2-chlorophenyl)acrylamido)methyl)benzamide], in assay [1], the GI50 was greater than 100 µM, the LC50 is greater than 100 µM and the IC (TGI) is greater than 100 µM. In assay [2], the GI50 is 100 µM, the CC50 is greater than 100 µM and the IC (TGI) was greater than 100 µM. In assay [3], the GI50 worked out at 1 µM, the LC50 (concentration giving 50% net cell kill relative to the time-zero cell count) was greater than 100 µM and the IC (TGI) is greater than 100 µM. In assay [4], the GI50 was 50.5 µM. Further, in assay [5], the “HDAC inhibition % (1 μM)” value was determined as 7.1% and the “HDAC inhibition % (10 μM)” value came to 30.1%.

Consider `CS(=O)(=O)c1ccc(/C=C(/C(=O)NCCCCCC(=O)NO)c2ccc(F)cc2)cc1` [Compound 87, 6-(2-(4-Fluorophenyl)-3-(4-methylsulfonylphenyl)acrylamido)-N-hydroxy hexanamide], for which, in assay [1], the GI50 is greater than 100 µM, the LC50 is greater than 100 µM and the IC (TGI) is greater than 100 µM. Moreover, in assay [2], the GI50 was 44 µM, the CC50 was greater than 100 µM and the IC (TGI) was 88 µM. For the same molecule, in assay [3], the GI50 was 20 µM, the LC50 (concentration giving 50% net cell kill relative to the time-zero cell count) is greater than 100 µM and the IC (TGI) is greater than 100 µM. The GI50 in assay [4] is greater than 100 µM. Besides, in assay [5], the “HDAC inhibition % (1 μM)” value is recorded as 43.6% and the “HDAC inhibition % (10 μM)” value was determined as 81.6%.

For the molecule `CSc1ccc(/C=C(/C(=O)NCc2ccc(C(=O)Nc3ccccc3N)cc2)c2ccc(F)cc2)cc1` [Compound 6, N-(2-Aminophenyl)-4-((3-(4-methylthiophenyl)-2-(4-fluorophenyl)acrylamido)methyl)benzamide], in assay [1], the GI50 was found to be 8.8 µM, the LC50 is 90 µM and the IC (TGI) is 47 µM. In addition, in assay [2], the GI50 is 4.8 µM, the CC50 was found to be 95.8 µM and the IC (TGI) was 46 µM. Moreover, in assay [3], the GI50 was less than 0.01 µM, the LC50 (concentration giving 50% net cell kill relative to the time-zero cell count) amounted to 83.2 µM and the IC (TGI) was determined as 22 µM. Besides, the GI50 in assay [4] was determined as 4.5 µM. Further, in assay [5], the “HDAC inhibition % (1 μM)” value was determined as 4.2% and the “HDAC inhibition % (10 μM)” value was 25.8%.

On to `COc1ccc(/C=C(/C(=O)NCc2ccc(C(=O)Nc3ccccc3N)cc2)c2cccs2)cc1OC` [Compound 37, N-(2-Aminophenyl)-4-((3-(3,4-dimethoxyphenyl)-2-(thiophen-2-yl)acrylamido)methyl)benzamide], for which, in assay [1], the GI50 stood at 2 µM, the LC50 is 100 µM and the IC (TGI) turned out to be 6 µM. Also, in assay [2], the GI50 is 1.1 µM, the CC50 came out at 80 µM and the IC (TGI) worked out at 6 µM. In assay [3], the GI50 was determined as 2.6 µM, the LC50 (concentration giving 50% net cell kill relative to the time-zero cell count) is 51 µM and the IC (TGI) stood at 7 µM. Moreover, the GI50 in assay [4] was determined as 1.9 µM. Also, in assay [5], the “HDAC inhibition % (1 μM)” value stood at 31.7%, the “HDAC inhibition % (10 μM)” value is reported as 59.9% and the IC50 stood at 5 µM.

For the molecule `CSc1ccc(/C=C(/C(=O)NCc2ccc(C(=O)Nc3ccccc3N)cc2)c2ccccc2F)cc1` [Compound 24, N-(2-Aminophenyl)-4-((3-(4-methylthiophenyl)-2-(2-fluorophenyl)acrylamido)methyl)benzamide], in assay [1], the GI50 came out at 5 µM and the IC (TGI) came to 32 µM. In assay [2], the GI50 is 3.8 µM, the CC50 was greater than 100 µM and the IC (TGI) turned out to be 12 µM. For the same molecule, in assay [3], the GI50 was 8.5 µM and the IC (TGI) came to 30 µM. The GI50 in assay [4] turned out to be 5.8 µM. Besides, in assay [5], the “HDAC inhibition % (1 μM)” value was determined as 41.3% and the “HDAC inhibition % (10 μM)” value came to 51.4%.

Regarding `Nc1ccccc1NC(=O)c1ccc(CNC(=O)/C(=C/c2ccccc2F)c2ccc(Cl)cc2)cc1` [Compound 3, N-(2-Aminophenyl)-4-((3-(2-fluorophenyl)-2-(4-chlorophenyl)acrylamido)methyl)benzamide], in assay [1], the GI50 is 0.6 µM, the LC50 was greater than 100 µM and the IC (TGI) came to 52 µM. In assay [2], the GI50 is 3.2 µM, the CC50 was 100 µM and the IC (TGI) was determined as 10 µM. In assay [3], the GI50 is 16 µM, the LC50 (concentration giving 50% net cell kill relative to the time-zero cell count) was determined as 85 µM and the IC (TGI) stood at 39 µM. In assay [4], the GI50 is 6.6 µM. Moreover, in assay [5], the “HDAC inhibition % (1 μM)” value was determined as 5.1% and the “HDAC inhibition % (10 μM)” value turned out to be 16.4%.

On to `CSc1ccc(/C=C(/C(=O)NCc2ccc(C(=O)NO)cc2)c2ccc(F)cc2)cc1` [Compound 52, 4-((2-(4-Fluorophenyl)-3-(4-methylthiophenyl)acrylamido)methyl)-N-hydroxybenzamide], for which, in assay [1], the GI50 came to 12 µM, the LC50 came out at 82 µM and the IC (TGI) was found to be 53 µM. Besides, in assay [2], the GI50 turned out to be 5.6 µM, the CC50 amounted to 69 µM and the IC (TGI) amounted to 9.6 µM. In assay [3], the GI50 is 10 µM, the LC50 (concentration giving 50% net cell kill relative to the time-zero cell count) amounted to 75 µM and the IC (TGI) was 54 µM. Further, in assay [4], the GI50 was found to be 9.2 µM. In assay [5], the “HDAC inhibition % (1 μM)” value was 83.5%, the “HDAC inhibition % (10 μM)” value came out at 95.7% and the IC50 is 0.06 µM.

For `COc1ccc(/C=C(/C(=O)NCc2ccc(/C=C/C(=O)NO)cc2)c2ccccc2F)cc1OC` [Compound 78, (1E)-N-(4-(3-(Hydroxyamino)-3-oxoprop-1-enyl)benzyl)-2-(2-fluorophenyl)-3-(3,4-dimethoxyphenyl)acrylamide], in assay [1], the GI50 was 2 µM, the LC50 is greater than 100 µM and the IC (TGI) was greater than 100 µM. Further, in assay [2], the GI50 came to 4 µM, the CC50 is greater than 100 µM and the IC (TGI) stood at 30 µM. In addition, in assay [3], the GI50 is 1 µM, the LC50 (concentration giving 50% net cell kill relative to the time-zero cell count) is greater than 100 µM and the IC (TGI) was found to be 8 µM. Besides, in assay [4], the GI50 is 2.3 µM. In assay [5], the “HDAC inhibition % (1 μM)” value was determined as 87.6% and the “HDAC inhibition % (10 μM)” value is on record as 91.3%.

For orientation: GI50 means the concentration at which growth is held to half of that of the control. As usually defined, the LC50 is the concentration that kills 50% of the test population. Broadly, the IC50 is the concentration that inhibits the measured activity by half.

The values above are taken from patent publication US8476255B2, “Histone deacetylase inhibitors” (Orchid Chemicals & Pharmaceuticals Limited, priority 2007, dated 2013).
